Results as given in patent US11099176B2 (priority 2015, dated 2021).
Where two headings read alike, the source gives them in different places.

Assays:
Format in all cases: binding
[1] = target: T1, Pseudomonas stuztzeri psLacBP11 variant W195C, SEQ ID NO: 45, Acrylodan conjugate (Stutzerimonas nitrititolerans, UniProt A0ABX9V4I2, W224C); assay: Fluorescence titration of conjugate; settings: λ1 487, λ2 466 nm
T1 construct: Acrylodan on Cys195

[2] = target: Marinobacter sp. msLacBP6 variant 187C, F68M, SEQ ID NO: 50, Badan conjugate; assay: Fluorescence titration of conjugate (affinity tuning); settings: λ1 464, λ2 527 nm
[3] = target: Marinobacter sp. msLacBP6 variant 187C, D220E, SEQ ID NO: 56, Badan conjugate; assay: as above; settings: read-out: trueKd (lactate); monochromatic, 532 nm
[4] = target: T2, Flexistipes sinusarabici fsLacBP13 variant W188C, SEQ ID NO: 47, Acrylodan conjugate (Flexistipes sinusarabici, UniProt F8E724, W211C); assay: Fluorescence titration of conjugate
T2 construct: Acrylodan on Cys188
T2 sequence (F8E724 entry or part of it W211C): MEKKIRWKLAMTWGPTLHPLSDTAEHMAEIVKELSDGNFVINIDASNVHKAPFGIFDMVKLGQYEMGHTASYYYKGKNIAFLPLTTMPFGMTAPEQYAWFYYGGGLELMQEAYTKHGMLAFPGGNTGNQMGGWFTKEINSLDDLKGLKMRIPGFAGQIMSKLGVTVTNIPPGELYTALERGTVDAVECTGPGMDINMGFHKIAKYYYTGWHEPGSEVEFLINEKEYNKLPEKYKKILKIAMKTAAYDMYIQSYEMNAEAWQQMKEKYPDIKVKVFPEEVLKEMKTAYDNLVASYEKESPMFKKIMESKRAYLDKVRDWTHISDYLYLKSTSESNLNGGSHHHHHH

[5] = target: Marinobacter sp. msLacBP6 variant 187C, F68M, SEQ ID NO: 50, Acrylodan conjugate; assay: Fluorescence titration of conjugate (affinity tuning); settings: λ1 459, λ2 516 nm
[6] = target: T3, Rhodobacter sphaeroides rsLacBP12 variant F191C, SEQ ID NO: 46, Acrylodan conjugate (Cereibacter sphaeroides, UniProt Q3IWV8, F228C); parameters: key: nb: no binding
T3 construct: Acrylodan on Cys191
T3 sequence (Q3IWV8 entry or part of it F228C): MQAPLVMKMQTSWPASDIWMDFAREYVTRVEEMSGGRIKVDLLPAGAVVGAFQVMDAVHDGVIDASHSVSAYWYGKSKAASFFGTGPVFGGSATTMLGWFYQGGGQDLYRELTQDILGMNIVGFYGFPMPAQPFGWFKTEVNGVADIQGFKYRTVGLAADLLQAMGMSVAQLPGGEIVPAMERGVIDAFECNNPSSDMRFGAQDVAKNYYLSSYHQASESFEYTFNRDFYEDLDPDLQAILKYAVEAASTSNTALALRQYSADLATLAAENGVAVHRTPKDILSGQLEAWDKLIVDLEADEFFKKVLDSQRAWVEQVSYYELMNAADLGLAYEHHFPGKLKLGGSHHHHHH
Procedure: (§1) 12-, 24-, or 48-point logarithmic titration series were prepared on a Tecan Freedom liquid-handling robot, using an in-house program, ‘TitrationPlate’, that compiles an abstract description of a multi-component titration series into machine instructions for operating the robot. Temperature-dependent fluorescence emission intensities of 20 μL aliquots, each containing 10 μM protein, were measured in 384-well microtiter plates in a LightCycler 480 II (Roche) using excitation and emission wavelengths available for this instrument that most closely matched the optical characteristics of the fluorescent conjugate. Temperatures were advanced in 1K steps. At each temperature, data was collected at 1-second intervals for 60 seconds at which point the signal had relaxed to a steady value associated with the new temperature. […] The in-house program ‘TitrationMeltPlate’ was used to convert these observations into time-independent datasets that record fluorescence as a function of temperature for each well and associate wells with their concentration of titrant and additive. Management tools were developed to maintain a database of titrations and their analyses.
(§2) Ligand- and wavelength-dependent emission intensities were recorded on a Nanodrop3300 (Thermo Scientific) at room temperature. Using the LED closest to the optimal excitation wavelength of the fluorophore (UV, 365 nm; blue, 470 nm; ‘white’, 460-550 nm).
(§3) Monochromatic emission intensities Iλ (these intensities correspond to a bandpass intensity, recorded either with a physical filter in the case of the Roche LightCycler, or by integrating in the interval λ−δ, λ+δ in the case of an emission spectrum), were fit to Iλ=^apoβλ(1−ytrue)+^satβλytrue 1 where ^apoβλ and ^satβλ are the fluorescence baselines associated with the ligand-free and ligand-bound states of the protein, respectively, and ytrue the fractional saturation of the protein (Layton and Hellinga, 2010, Biochemistry, 49, 10831-41). Baseline functions can be constant, linear, or a second-order polynomial.

[7] = target: T4, Pseudomonas stuztzeri psLacBP11 variant W195C, SEQ ID NO: 45, Badan conjugate (Stutzerimonas nitrititolerans, UniProt A0ABX9V4I2, W224C); parameters: key: nb: no binding
T4 construct: Badan on Cys195
T4 sequence (A0ABX9V4I2 entry or part of it W224C): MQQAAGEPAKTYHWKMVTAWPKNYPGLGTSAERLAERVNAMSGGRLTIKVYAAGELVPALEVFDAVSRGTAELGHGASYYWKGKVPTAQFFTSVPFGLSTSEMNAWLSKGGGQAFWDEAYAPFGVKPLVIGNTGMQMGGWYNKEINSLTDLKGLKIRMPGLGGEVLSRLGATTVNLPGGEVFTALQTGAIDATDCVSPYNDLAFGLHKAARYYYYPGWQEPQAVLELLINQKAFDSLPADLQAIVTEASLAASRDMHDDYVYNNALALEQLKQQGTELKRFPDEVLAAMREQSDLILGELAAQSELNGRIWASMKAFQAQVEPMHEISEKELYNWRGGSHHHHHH
Procedure: as §1, §2, §3

[8] = target: T5, Thermanaerovibrio acidaminovorans taLacBP14 variant W186C, SEQ ID NO: 48, Badan conjugate (Thermanaerovibrio acidaminovorans, UniProt D1B6P5, C271A/C333A/W212C); parameters: key: nb: no binding; settings: λ1 515, λ2 491 nm
T5 construct: Badan on Cys186
T5 sequence (D1B6P5 entry or part of it W212C/C271A/C333A): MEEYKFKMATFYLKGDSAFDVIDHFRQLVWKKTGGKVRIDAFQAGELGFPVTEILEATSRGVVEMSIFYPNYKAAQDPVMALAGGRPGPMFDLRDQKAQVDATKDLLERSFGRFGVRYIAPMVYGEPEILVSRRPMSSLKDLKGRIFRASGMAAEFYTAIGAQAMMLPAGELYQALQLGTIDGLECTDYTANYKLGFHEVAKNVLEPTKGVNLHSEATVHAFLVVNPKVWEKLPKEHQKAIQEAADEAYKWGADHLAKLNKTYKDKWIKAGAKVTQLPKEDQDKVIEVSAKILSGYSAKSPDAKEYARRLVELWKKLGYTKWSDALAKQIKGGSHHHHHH
Procedure: as §1, §2, §3

[9] = target: T6, Thermanaerovibrio acidaminovorans taLacBP14 variant W186C, SEQ ID NO: 48, Acrylodan conjugate (Thermanaerovibrio acidaminovorans, UniProt D1B6P5, C271A/C333A/W212C); parameters: key: nb: no binding
T6 construct: Acrylodan on Cys186
T6 sequence (D1B6P5 entry or part of it W212C/C271A/C333A): as above
Procedure: as §1, §2, §3

[10] = target: T7, Rhodobacter sphaeroides rsLacBP12 variant F191C, SEQ ID NO: 46, Badan conjugate (Cereibacter sphaeroides, UniProt Q3IWV8, F228C); parameters: key: nb: no binding
T7 construct: Badan on Cys191
T7 sequence (Q3IWV8 entry or part of it F228C): as the sequence (Q3IWV8 entry or part of it F228C) above
Procedure: as §1, §2, §3

[11] = target: Marinobacter sp. msLacBP6 variant 187C, L70M, SEQ ID NO: 53, Badan conjugate; assay: Fluorescence titration of conjugate (affinity tuning); settings: λ1 459, λ2 539 nm

T1 sequence (A0ABX9V4I2 entry or part of it W224C): as the sequence (A0ABX9V4I2 entry or part of it W224C) above

Q: How did the Kd ([1]; read-out: appKd (lactate)) turn out when `C[C@H](O)C(=O)O` [lactate] was run?
A: > 100000 µM

Q: And the Kd ([1]; read-out: trueKd (lactate))?
A: > 100000 µM

Q: What about the Kd ([2]; read-out: appKd (lactate)) of the same molecule?
A: 500 µM

Q: What about the Kd ([2]; read-out: trueKd (lactate)) of the same molecule?
A: 600 µM

Q: What about the Kd [3] of the same molecule?
A: 3100 µM

Q: What about the Kd [4] of the same molecule?
A: > 100000 µM

Q: And the Kd ([4]; read-out: trueKd (lactate), λ1 482, λ2 450 nm)?
A: > 100000 µM

Q: And the Kd ([5]; read-out: appKd (lactate))?
A: 700 µM

Q: What about the Kd ([5]; read-out: trueKd (lactate)) of the same molecule?
A: 500 µM

Q: And the “appKd (lactate)” value [6]?
A: nb

Q: What about the “trueKd (lactate)” value [6] of the same molecule?
A: nb

Q: What about the “appKd (lactate)” value [7] of the same molecule?
A: nb

Q: What about the “trueKd (lactate)” value [7] of the same molecule?
A: nb

Q: What about the “appKd (lactate)” value [8] of the same molecule?
A: nb

Q: And the “trueKd (lactate)” value [8]?
A: nb

Q: And the “appKd (lactate)” value [9]?
A: nb

Q: And the “trueKd (lactate)” value [9]?
A: nb

Q: What about the “appKd (lactate)” value [10] of the same molecule?
A: nb

Q: What about the “trueKd (lactate)” value [10] of the same molecule?
A: nb

Q: What about the Kd ([11]; read-out: appKd (lactate)) of the same molecule?
A: 1100 µM

Q: And the Kd ([11]; read-out: trueKd (lactate))?
A: 700 µM
